Source: article PMC6034706 (ChemMedChem, 2017)
Read-outs that look alike come from different tables or passages of the source.

Key:
E. coli = test: Cell viability assay, bacterial growth; format: cell-based; details: for relative percentage growth, E. coli, Amox (+): with 50 μM amoxicillin; for relative percentage growth, E. coli, Amox (+) / relative percentage growth, E. coli, Amox (−): relative to untreated cells; for growth inhibition activity on its own: wild-type E. coli, without amoxicillin; for relative percentage growth, E. coli, Amox (−): compound alone
VIM2 expressing E. coli = format: cell-based; details: for relative percentage growth, VIM2 expressing E. coli, Amox (+): with 50 μM amoxicillin; for relative percentage growth, VIM2 expressing E. coli, Amox (+) / relative percentage growth, VIM2 expressing E. coli, Amox (−): relative to untreated cells; for growth inhibition activity on its own: VIM2-expressing E. coli, without amoxicillin; for relative percentage growth, VIM2 expressing E. coli, Amox (−): compound alone
VIM2 [1] = target: T1, VIM2 (Escherichia coli, UniProt Q5U7L7); format: biochemical, P. aeruginosa; details: 50 μM compound, 5 nM VIM-2, 10 μM nitrocefin, 30 mins
VIM2 [2] = target: T1, VIM2; test: biochemical; format: biochemical, P. aeruginosa; details: for IC50: 5 nM VIM-2, 10 μM nitrocefin
all eleven HDACs = details: earlier studies ref [10]; cited from earlier work
VIM-2 expressing E. coli = test: Half maximal effective concentration; format: cell-based; details: in the presence of 50 μM amoxicillin
[3] = test system: human embryonic kidney HEK 293 cell lines; details: cited from earlier work
[4] = Plasma stability study, human plasma; format: in vitro ADME; details: 10 μM, 37 °C, pooled plasma
[5] = Plasma stability study, mouse plasma; format: in vitro ADME; details: 10 μM, 37 °C, pooled plasma
VIM2 [6] = target: T1, VIM2; parameters: species or system P. aeruginosa; details: 6 and 12 μM inhibitor, 6 μM VIM-2, ICP-AES
[7] = test system: O=C(Cc1cccs1)N[C@@H]1C(=O)N2C(C(=O)O)=C(/C=C/c3ccc([N+](=O)[O-])cc3[N+](=O)[O-])CS[C@H]12; test: purified protein, by the assay type; details: other: 50 mM potassium phosphate buffer, pH 7.0, room temperature
[8] = competitive-inhibition fit, nitrocefin substrate

## CC1(C)S[C@@H]2[C@H](NC(=O)[C@H](N)c3ccc(O)cc3)C(=O)N2[C@H]1C(=O)O [Amox, amoxicillin]
E. coli; Escherichia coli, read-out: growth inhibition by amoxicillin alone
  inhibition at 50 µM: > 96%
E. coli
  relative percentage growth, E. coli, Amox (+): 3.6%
VIM2 expressing E. coli
  relative percentage growth, VIM2 expressing E. coli, Amox (+): 77%
VIM2 expressing E. coli; listed as amoxicillin
  relative percentage growth, VIM2 expressing E. coli, Amox (+): ineffective

## O=C(O)[C@H]1/C(=C/CO)O[C@@H]2CC(=O)N21 [Clavulanate]
VIM2 expressing E. coli; listed as clavulanic acid
  relative percentage growth, VIM2 expressing E. coli, Amox (+): ineffective
VIM2 [1]
  % Inhibition at 50 μM: 15%

## On1ccccc1=S [Compound 2, 1-Hydroxypyridine-2-thione]
VIM2 [2]
  Ki: 217 nM
E. coli
  growth inhibition activity on its own: over 89%
VIM2 expressing E. coli
  growth inhibition activity on its own: over 89%

## [Na+].[O-]n1ccccc1=S [Compound 2b]
VIM2 [2]
  IC50: 908 nM
VIM2 [2]; [8]
  Ki: 217 nM
VIM2 [1]
  % Inhibition at 50 μM: 93%

## O=C(O)c1cccc(=S)n1O [Compound 3, 1-hydroxypyridine-2(1H)-thiones-6-carboxylic acid]
VIM2 [2]
  Ki: 0.013 nM
  IC50: 270 nM
VIM2 [2]; LE = -1.38 log (Ki) / N, N = number of heavy atoms
  LE (ligand efficiency): 0.99
VIM2 [2]; [8]
  Ki: 13 nM
All eleven HDACs
  range of selectivity among HDACs: ~5000 fold
VIM-2 expressing E. coli
  EC50: 110 nM
[3]
  CC50: 97400 nM
E. coli
  relative percentage growth, E. coli, Amox (−): 77%
  growth inhibition activity on its own: moderate antibacterial activity
  relative percentage growth, E. coli, Amox (+): 3.6%
[4]
  Human Plasma t1/2: 11.7 min
VIM2 expressing E. coli
  growth inhibition activity on its own: moderate antibacterial activity
  relative percentage growth, VIM2 expressing E. coli, Amox (−): 61%
  relative percentage growth, VIM2 expressing E. coli, Amox (+): 3.2%
[5]
  Mouse Plasma t1/2: 12.7 min
VIM2 [1]
  % Inhibition at 50 μM: 98%

## O=C(O)CN(CCN(CC(=O)O)CC(=O)O)CC(=O)O [EDTA]
VIM2 [6]
  metal content of VIM-2 with increasing inhibitor concentration: inverse relationship

## C[C@H](CS)C(=O)N1CCC[C@H]1C(=O)O [L-Captopril]
VIM2 [6]
  metal content of VIM-2 with increasing inhibitor concentration: relatively unaffected
E. coli
  growth inhibition activity on its own: moderate antibacterial activity
VIM2 expressing E. coli
  growth inhibition activity on its own: moderate antibacterial activity
VIM2 [1]
  % Inhibition at 50 μM: 98%

## O=C(CCCCCCC(=O)Nc1ccccc1)NO [SAHA]
E. coli
  relative percentage growth, E. coli, Amox (−): 83%
  relative percentage growth, E. coli, Amox (+): 3.6%
VIM2 expressing E. coli
  relative percentage growth, VIM2 expressing E. coli, Amox (−): 79%
  relative percentage growth, VIM2 expressing E. coli, Amox (+): 60%

## C[C@]1(Cn2ccnn2)[C@H](C(=O)O)N2C(=O)C[C@H]2S1(=O)=O [Tazobactam]
VIM2 [1]
  % Inhibition at 50 μM: 25%

## VIM-2 (Escherichia coli)
[7]
  kcat: 212 s⁻¹
